Source: patent US7807176B2, “Polypeptide promoting vascular endothelial cell growth” (Genomidea, Inc., priority 2004, dated 2010)
Entries after “also recorded” stand apart in the source; their conditions may differ.

Columns and labels:
[1] = tested on: transforming growth factor (TGF-β) mRNA; test: Growth factor mRNA expression level: TGF-β; assay type: cell-based
HEAC endothelial cells = test: Endothelial cell migration, modified Boyden chamber; assay type: cell-based, human; conditions: for migration % Increase: 4 hours
Description: A polyvinyl pyrrolidone (PVP)-free polycarbonate membrane having […] (Neuro Probe Inc., Gaithersburg, Md.) was coated overnight with 0.1% gelatin and then washed with phosphate buffered saline to remove an excess of the gelatin coating. Then, 28 μl growth factor-free EBM2 medium supplemented with 1% FBS was arranged in a lower chamber, and the membrane was arranged on the lower chamber. […] The Boyden chamber was incubated at 37° C. for 4 hours. After incubation, the membrane was removed and the cells on the upper side of the membrane were removed. The cells on the lower side of the membrane were stained with Diff-Quick (Sysmex, Hyogo Pref., JP). The cells in each of randomly selected 8 visual fields (×100) were counted.

C57BL/6 female mouse = test: Matrigel plug assay, in vivo angiogenesis; conditions: 1 μg/ml in Matrigel, subcutaneous, after 7 days
Description: In order to examine the in vivo angiogenesis-promoting activity of F2 peptide, a Matrigel plug assay (Rikitake, Y et al., Arterioscler Thromb Vasc Biol 20, 1006-1012 (2000)) was carried out. Together with any one of VEGF-A (50 ng/ml), F2 peptide (1 μg/ml) or the control peptide (1 μg/ml) or without adding any sample (negative control), Matrigel (0.5 ml, BD Biosciences, Franklin Lakes, N.J.) depleted of growth factor was mixed with 40 U/ml heparin (Aventis Pharma, Tokyo, JP). Then, each mixture was injected subcutaneously into a C57BL/6 female mouse obtained from Oriental Bioscience (Kyoto, JP). After 7 days, the mouse was sacrificed, and the plug was recovered and fixed in methanol. For immune staining, the section was incubated overnight at 4° C. with anti-CD31 (PECAM-1) monoclonal antibody (diluted at 1:100, BD Pharmigen, San Diego, Calif.) and then incubated for 2 hours with Alexa Flour 488 secondary antibody (1:1000, Molecular Probes, Eugene, Oreg.) before photographing. Every experimental protocol was approved by Animal Committee, Medical Department, Graduate School, Osaka University, JP.

Human endothelial cells = test: Test Example 2: growth of endothelial cells; assay type: cell-based; conditions: 1, 10 and 100 ng/ml; Test Example 2, present tense
Description: Human endothelial cells are sensitized with the HVJ envelope vector and then cultured in the presence or absence of human F2 peptide added externally (1, 10 and 100 ng/ml), to determine the increase (%) of the number of cells. […] Separately, endothelial cells sensitized with the HVJ envelope vector (concentration: 10 μg/ml) are cultured and an increase in the number of cells is measured to determine percentage increase (%). […] Further, the endothelial cells sensitized with the HVJ envelope vector are cultured in the presence or absence of rabbit anti-human F peptide antibody, and then an increase in the number of cells is measured to determine percentage increase (%).

[2] = tested on: endothelial nitric oxide synthase (eNOS) mRNA; test: Growth factor mRNA expression level: eNOS; assay type: cell-based
microorganism = test: Antimicrobial activity, minimum inhibitory concentration on microtiter plate; assay type: cell-based; conditions: Example 7, method only, MIC not given
Description: The antimicrobial activity is evaluated according to US National Committee for Clinical Laboratory Standard (NCCL Documents M7-A3). That is, the minimum concentration of the peptide at which microbial growth is inhibited is determined on a microtiter plate. A microorganism is cultured for 16 hours and then the absorbance at A600 thereof measured. From correlation of predetermined turbidity with colony forming unit (CFU), the […] is diluted with a medium to attain a specified CFU. Each microorganism strain is added at about 5×10^5 CFU/ml (final concentration). 5 mM aqueous solution of each peptide and 1.6 mM solution using a medium are prepared and used in serial dilution. 50 μl peptide at each concentration is pipetted into each well of a microtiter plate into which 50 μl/well microbial suspension has been pipetted (the final concentration of the peptide is 3.1 μM to 800 μM). A well to which the peptide was not added is used as the negative control. […] The concentration shown as results is MIC (μM). According to this method, the antimicrobial activity of the F2 peptide is determined.

[3] = tested on: fibroblast growth factor (FGF-2) mRNA; test: Growth factor mRNA expression level: FGF-2; assay type: cell-based

MLSLIFLHRLKSMRKRLDRKLRFWHRKNYP (listed as Homo sapiens) [F2 peptide]
effect on mRNA level of TGF-β (in words) [1]: did not have any effect | TGF-b mRNA Increased Amount [times] ([1]; 24 hrs): 2.6 times | TGF-b mRNA Increased Amount [times] ([1]; 48 hrs): 13.6 times | TGF-b mRNA Increased Amount [times] ([1]; 72 hrs): 1.6 times | migration % Increase (HEAC endothelial cells; 10 ng/ml): 88.5% | migration % Increase (HEAC endothelial cells; 100 ng/ml): 102.5% | migration % Increase (HEAC endothelial cells; 1 μg/ml): 129.8% | cell migration activity (in words) (HEAC endothelial cells; F2 0.01 to 1 μg/ml, control peptide 1 μg/ml, VEGF 50 ng/ml, FIG. 10): significantly increased in a concentration-dependent manner; also recorded: higher than that of VEGF (50 ng/ml) | newly formed blood vessels containing intact erythrocytes in the plug (C57BL/6 female mouse; FIG. 12): more newly formed blood vessels containing intact erythrocytes than in the mouse receiving a Matrigel containing the control peptide | newly formed blood vessels by immune staining with anti-CD31 antibody (C57BL/6 female mouse; FIG. 13): more newly formed blood vessels | growth of endothelial cells with externally added peptide (Human endothelial cells): growth of endothelial cells is promoted | effect on mRNA level of eNOS (in words) [2]: did not have any effect | eNOS mRNA Increased Amount [times] ([2]; 24 hrs): 0.1 times | eNOS mRNA Increased Amount [times] ([2]; 48 hrs): 6.1 times | eNOS mRNA Increased Amount [times] ([2]; 72 hrs): 0.7 times | antimicrobial activity (microorganism): has an antimicrobial activity | effect on mRNA level of FGF-2 (in words) [3]: did not have any effect | FGF-2 mRNA Increased Amount [times] ([3]; 24 hrs): 5.7 times | FGF-2 mRNA Increased Amount [times] ([3]; 48 hrs): 6.0 times | FGF-2 mRNA Increased Amount [times] ([3]; 72 hrs): 9.4 times
